Activity calls are given as the source filed them. How the calls were made is not given here.
Assays:
Poliovirus 1 = assay: Antiviral activity against Human poliovirus 1 Sabin; type: functional
[1] = system: Vesicular stomatitis virus; assay: Antiviral activity against vesicular stomatitis virus; type: functional, organism-based
Vaccinia virus = assay: Antiviral activity against vaccinia virus; type: functional, organism-based; conditions: Orthopoxvirus vaccinia
Yellow fever virus = assay: Antiviral activity against YFV in BHK cells assessed as protection from virus-induced cytopathogenicity by MTT method; type: functional, organism-based
[2] = system: Respiratory syncytial virus; assay: Antiviral activity against RSV A2 in VERO76 cells assessed as reduction of plaque number by MTT method; type: functional, organism-based; conditions: human respiratory syncytial virus, A2, Vero 76
Reovirus sp. = assay: Antiviral activity against Reovirus; type: functional, organism-based
[3] = system: Bovine viral diarrhea virus 1; assay: Antiviral activity against BVDV NADL in MDBK cells assessed as protection from virus-induced cytopathogenicity by MTT method; type: functional, organism-based; conditions: Bovine viral diarrhea virus isolates and strains
[4] = system: Human immunodeficiency virus 1; assay: Antiviral activity against HIV1; type: functional, organism-based
[5] = Cytotoxicity against human MT4 cells after 96 hrs by MTT method; type: cell-based

Row | Compound | Activity (Poliovirus 1) | Activity [1] | Activity (Vaccinia virus) | EC50 (Yellow fever virus) [µM] | EC50 [2] [µM] | Activity (Reovirus sp.) | EC50 [3] [µM] | Activity [4] | CC50 at 96 h [5] [µM]
1 | O=c1ccc2ccc(O)c(CN3CCN(C/C=C/c4ccccc4)CC3)c2o1 | inactive | inactive | inactive | > 59 | > 100 | inactive | > 24 | inactive | 5
2 | COCCN(CCOC)c1oc2cc(OC)ccc2c(=O)c1Cc1c(OC(C)=O)ccc2ccc(=O)oc12 | inactive | inactive | inactive | > 100 | 7 | inactive | > 100 | inactive | > 100
3 | Cc1cc(=O)oc2c(CN3CCOCC3)c(OC(=O)c3ccccc3)ccc12 | inactive | inactive | inactive | > 100 | > 100 | inactive | > 100 | inactive | > 100
4 | COc1ccc2c(=O)c(Cc3c(OC(C)=O)ccc4ccc(=O)oc34)c(N(C)C)oc2c1 | inactive | inactive | inactive | > 100 | > 25 | inactive | > 51 | inactive | 26
5 | COCCN(CCOC)c1oc2cc(OC)ccc2c(=O)c1Cc1c(OC(C)=O)ccc2c(C)cc(=O)oc12 | inactive | inactive | inactive | > 100 | 5 | inactive | 61 | inactive | > 100
6 | CCOC(=O)N1CCN(Cc2c(OC(=O)c3ccccc3)ccc3ccc(=O)oc23)CC1 | inactive | inactive | inactive | > 100 | 90 | inactive | > 100 | inactive | > 100
7 | CC(=O)Oc1ccc2c(C)cc(=O)oc2c1Cc1c(N(C)C)oc2ccc3ccccc3c2c1=O | inactive | inactive | inactive | > 100 | > 13 | inactive | > 100 | inactive | > 100
8 | CCN(CC)c1oc2ccc3ccccc3c2c(=O)c1Cc1c(OC(C)=O)ccc2ccc(=O)oc12 | inactive | inactive | inactive | > 100 | > 100 | inactive | > 100 | inactive | > 100
9 | CC(=O)Oc1ccc2ccc(=O)oc2c1Cc1c(C)[nH]c2ccccc12 | inactive | inactive | inactive | > 73 | > 100 | inactive | > 86 | inactive | 62
10 | COc1ccc2c(=O)c(Cc3c(OC(C)=O)ccc4c(C)cc(=O)oc34)c(N(C)C)oc2c1 | inactive | inactive | inactive | > 100 | 25 | inactive | > 28 | inactive | 42
11 | CCCCCCCCOc1ccc2c(=O)c(Cc3c(OC(C)=O)ccc4c(C)cc(=O)oc34)c(N(CC)CC)oc2c1 | inactive | inactive | inactive | > 100 | > 100 | inactive | > 100 | inactive | > 100
12 | Cc1cc(=O)oc2c(CN3CCN(C)CC3)c(OC(=O)c3ccccc3)ccc12 | inactive | inactive | inactive | > 100 | > 100 | inactive | > 100 | inactive | > 100
13 | O=c1ccc2ccc(O)c(CN3CCN(Cc4ccc5c(c4)OCO5)CC3)c2o1 | inactive | inactive | inactive | > 100 | > 100 | inactive | > 100 | inactive | 13
14 | CN(CC(=O)O)Cc1c(O)ccc2ccc(=O)oc12 | inactive | inactive | inactive | > 100 | > 100 | inactive | > 100 | inactive | > 100
15 | CC(=O)Oc1ccc2ccc(=O)oc2c1Cc1c(-c2ccccc2)[nH]c2ccccc12 | inactive | inactive | inactive | > 100 | > 100 | inactive | > 57 | inactive | > 100
16 | COc1ccc2c(=O)c(Cc3c(O)ccc4ccc(=O)oc34)c(N3CCCC3)oc2c1 | inactive | inactive | inactive | > 100 | > 100 | inactive | > 100 | inactive | > 100
17 | CCCOc1ccc2c(C)cc(=O)oc2c1CN1CCc2ccccc2C1 | inactive | inactive | inactive | > 100 | > 93 | inactive | 20 | inactive | > 100
18 | CCCOc1ccc2c(C)cc(=O)oc2c1CN1CCN(c2ccc(C(C)=O)cc2)CC1 | inactive | inactive | inactive | > 100 | > 100 | inactive | 8 | inactive | 25
19 | COCCN(CCOC)c1oc2ccc3ccccc3c2c(=O)c1Cc1c(OC(C)=O)ccc2ccc(=O)oc12 | inactive | inactive | inactive | 100 | 5 | inactive | 78 | inactive | > 100
20 | Cc1cc(=O)oc2c(CN(C)CC(=O)O)c(O)ccc12 | inactive | inactive | inactive | > 100 | > 100 | inactive | > 100 | inactive | > 100
21 | CCCOc1ccc2ccc(=O)oc2c1CN1CCN(C/C=C/c2ccccc2)CC1 | inactive | inactive | inactive | > 48 | > 100 | inactive | 15 | inactive | 16
22 | CCCOc1ccc2c(C)cc(=O)oc2c1CN1CCN(C/C=C/c2ccccc2)CC1 | inactive | inactive | inactive | > 53 | > 100 | inactive | 27 | inactive | > 100
23 | Cc1cc(=O)oc2c(CN3CCN(Cc4ccc5c(c4)OCO5)CC3)c(O)ccc12 | inactive | inactive | inactive | > 100 | > 100 | inactive | 75 | inactive | 72
24 | CCC(=O)Oc1ccc2ccc(=O)oc2c1Cc1c[nH]c2ccccc12 | inactive | inactive | inactive | > 52 | > 54 | inactive | ≥ 55 | inactive | 65
25 | CN1CCN(Cc2c(O)ccc3ccc(=O)oc23)CC1 | inactive | inactive | inactive | > 100 | > 100 | inactive | > 100 | inactive | > 100
26 | COc1ccc2[nH]cc(Cc3c(OC(C)=O)ccc4c(C)cc(=O)oc34)c2c1 | inactive | inactive | inactive | > 100 | > 100 | inactive | > 100 | inactive | 72
27 | CCN(CC)c1oc2cc(OC)ccc2c(=O)c1Cc1c(OC(C)=O)ccc2ccc(=O)oc12 | inactive | inactive | inactive | > 100 | 20 | inactive | > 100 | inactive | 83
28 | CCN(CC)c1oc2cc(OC)ccc2c(=O)c1Cc1c(O)ccc2c(C)cc(=O)oc12 | inactive | inactive | inactive | > 100 | > 100 | inactive | > 100 | inactive | > 100

Source: ChEMBL document CHEMBL1144007, “Activity of Mannich bases of 7-hydroxycoumarin against Flaviviridae” (Bioorg Med Chem, 2008)
